Data as given in PMC12472512, “Design, Synthesis, In Silico Docking, Multitarget Bioevaluation and Molecular Dynamic Simulation of Novel Pyrazolo[3,4-d]Pyrimidinone Derivatives as Potential In Vitro and In Vivo Anti-Inflammatory Agents” (Pharmaceuticals, 2025).
Values joined by “and” are separate entries in the source; they are usually repeats but may differ in a detail not shown here. Equal entries are not always repeated. “Also recorded” adds a separate entry of the source.

What was measured:
[1] = test system: COX-2; parameters: method as in PMID 19479756; conditions: cited from earlier work
[2] = test system: TNF-α; assay: ELISA of serum TNF-α in carrageenan-treated mice; assay type: in vivo; conditions: 50 mg/kg; carrageenan-treated mice at 3 h; compared to the control group
Description: To evaluate the anti-inflammatory mechanisms of these compounds, two key chemical mediators, TNF-α and IL-6, were assessed using enzyme-linked immunosorbent assay (ELISA).
(§1) All mice were sacrificed under anesthesia using ketamine/xylazine (50/15 mg/kg). Blood was collected for the ELISA assays to determine the levels of cytokines TNF-α and IL-6 using the Rat IL6 (Interleukin 6) ELISA Kit and Rat TNFα ELISA Kit (MyBioSource, San Diego, CA, USA), in accordance with the manufacturer’s instructions. The quantitative sandwich enzyme immunoassay technique is the fundamental principle of the TNF-α assay. A microplate was pre-coated with an antibody specific for TNF-α. Standards and samples were pipetted into the wells, and the immobilized antibody bound to any TNF-α that was present. A biotin-conjugated antibody that was specific for TNF-α was introduced to the wells after any unbound substances were removed. Horseradish peroxidase (HRP) conjugated with avidin was introduced to the wells subsequent to the cleaning process. After a wash to eliminate any unbound avidin–enzyme reagent, a substrate solution was introduced to the wells, and the color developed in proportion to the quantity of TNF-α bound in the initial step. The color development was halted, and the color intensity was quantified. Additionally, the Sandwich enzyme immunoassay is the test principle utilized for IL-6. The microtiter plates included in this preparation were pre-coated with an antibody that was specific to Rat IL6. A biotin-conjugated antibody specific to Rat IL6 was then added to the appropriate microtiter plate wells along with standards or samples. Subsequently, each microplate well was incubated with avidin conjugated to horseradish peroxidase (HRP). […] The addition of sulfuric acid solution terminated the enzyme–substrate reaction, and the color change was observed spectrophotometrically at a wavelength of 450 nm ± 10 nm. The concentration of Rat IL6 in the samples was subsequently determined by comparing the OD of the samples to the standard curve.
Blood was collected immediately following the decapitation of mice, performed in accordance with the institutional animal care and use committee (IACUC) guidelines. After decapitation, whole blood was allowed to flow freely and was collected directly into EDTA and heparinized tubes. The whole blood was centrifuged at 3000× g for 10 min at 4 °C, and the plasma was carefully collected and stored at –80 °C until further analysis.

[3] = test system: IL-6; assay: ELISA of serum IL-6 in carrageenan-treated mice; assay type: in vivo; conditions: 50 mg/kg; carrageenan-treated mice at 3 h
Description: Therefore, the anti-inflammatory activity of the tested compounds may hinge on their ability to suppress the pro-inflammatory TNF-α and IL-6 levels.
as §1, with “curve. […]” for “curve.”

[4] = test system: carrageenan-induced paw edema; assay: In vivo carrageenan-induced paw edema; conditions: 50 mg/kg oral, mice
[5] = test system: gastric mucosa; assay: Histopathological examination of stomach sections (H&E); conditions: stomach sections stained with H&E, 50 mg/kg
[6] = target: T1, COX-1 (Ovis aries, UniProt P05979); assay: In vitro COX-1 inhibition, fluorescent inhibitor screening assay kit
T1 sequence (P05979 25-600): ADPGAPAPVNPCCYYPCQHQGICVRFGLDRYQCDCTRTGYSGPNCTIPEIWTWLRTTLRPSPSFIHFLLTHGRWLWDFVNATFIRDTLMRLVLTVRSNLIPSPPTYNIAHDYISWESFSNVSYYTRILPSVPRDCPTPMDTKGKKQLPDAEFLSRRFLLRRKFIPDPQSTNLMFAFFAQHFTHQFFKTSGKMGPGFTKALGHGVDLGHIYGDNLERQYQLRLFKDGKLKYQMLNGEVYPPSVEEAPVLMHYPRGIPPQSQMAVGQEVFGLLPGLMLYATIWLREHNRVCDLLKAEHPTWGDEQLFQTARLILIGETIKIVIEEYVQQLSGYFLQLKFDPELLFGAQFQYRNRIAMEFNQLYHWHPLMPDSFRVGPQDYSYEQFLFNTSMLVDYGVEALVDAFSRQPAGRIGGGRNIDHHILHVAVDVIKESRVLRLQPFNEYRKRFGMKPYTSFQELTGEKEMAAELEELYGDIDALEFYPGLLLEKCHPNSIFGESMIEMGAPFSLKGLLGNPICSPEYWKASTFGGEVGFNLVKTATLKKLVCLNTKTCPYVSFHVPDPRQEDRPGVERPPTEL
Description: (§2) Test compounds, dissolved in DMSO, and were pre-incubated with the enzymes at 37 °C for 5 min before initiating the reaction with 1 mM arachidonic acid under light-protected conditions. The fluorescence was measured using a multi-well spectrophotometer (fluorescence plate reader). […] The percentage inhibition was calculated by comparing the absorbance values of the compounds to the vehicle control.
(§3) This protocol utilizes a colorimetric assay to measure the peroxidase activity of Prostaglandin G/H
(§4) Synthase (COX enzyme). The COX enzyme converts Arachidonic Acid (AA) to Prostaglandin G2
(§5) (PGG2), which is then reduced to Prostaglandin H2 (PGH2) by the inherent peroxidase activity.
(§6) peroxidase reaction co-oxidizes a chromogen, such as N,N,N',N'-Tetramethyl-p-phenylenediamine
(§7) (TMPD), resulting in a colored product that can be measured spectrophotometrically at 590-630 nm.
(§8) inhibition of COX enzyme by a test compound reduces the formation of this colored product, allowing
(§9) for the calculation of percentage inhibition and subsequent IC50 values.
(§10) o Ovine COX-1 (purified, commercially available)
(§11) • Substrate: Arachidonic Acid (AA). Prepare a stock solution in ethanol. Note: AA is unstable;
(§12) aliquot and store under inert gas (e.g., Argon) at -80°C.
(§13) • Cofactor: Hemin. Prepare a stock solution in DMSO.
(§14) • Chromogen: N,N,N',N'-Tetramethyl-p-phenylenediamine (TMPD) dihydrochloride.
(§15) • Assay Buffer: 100 mM Tris-HCl buffer, pH 8.0. May contain 1-5 mM EDTA and 1-2 µM
Phenol (acts as a cofactor for COX-2).
(§16) • Solvents: Dimethyl Sulfoxide (DMSO), Ethanol (absolute).
(§17) consistent across all wells (typically ≤1% final concentration).
o Keep all dilutions on ice.
(§18) o COX-1 Working Solution: Dilute ovine COX-1 in ice-cold assay buffer to a final
(§19) concentration of ~50-100 U/mL. Add Hemin to a final concentration of 1 µM.
(§20) o Note: The exact enzyme units (U) required must be determined by a preliminary activity
(§21) test to ensure the reaction is linear and within the dynamic range of the assay.
(§22) Substrate/Chromogen Solution (Prepare Fresh):
(§23) o To a tube containing assay buffer, add TMPD to a final concentration of 0.2-0.5 mM.
(§24) o Add Arachidonic Acid to a final concentration of 100 µM. Vortex gently.
(§25) o Keep this solution protected from light and on ice until use.
(§26) Assay Setup (Performed in duplicate or triplicate)

[7] = target: T2, human recombinant COX-2 (Homo sapiens, UniProt P35354); assay: In vitro COX-2 inhibition, fluorescent inhibitor screening assay kit
T2 sequence (P35354 18-604): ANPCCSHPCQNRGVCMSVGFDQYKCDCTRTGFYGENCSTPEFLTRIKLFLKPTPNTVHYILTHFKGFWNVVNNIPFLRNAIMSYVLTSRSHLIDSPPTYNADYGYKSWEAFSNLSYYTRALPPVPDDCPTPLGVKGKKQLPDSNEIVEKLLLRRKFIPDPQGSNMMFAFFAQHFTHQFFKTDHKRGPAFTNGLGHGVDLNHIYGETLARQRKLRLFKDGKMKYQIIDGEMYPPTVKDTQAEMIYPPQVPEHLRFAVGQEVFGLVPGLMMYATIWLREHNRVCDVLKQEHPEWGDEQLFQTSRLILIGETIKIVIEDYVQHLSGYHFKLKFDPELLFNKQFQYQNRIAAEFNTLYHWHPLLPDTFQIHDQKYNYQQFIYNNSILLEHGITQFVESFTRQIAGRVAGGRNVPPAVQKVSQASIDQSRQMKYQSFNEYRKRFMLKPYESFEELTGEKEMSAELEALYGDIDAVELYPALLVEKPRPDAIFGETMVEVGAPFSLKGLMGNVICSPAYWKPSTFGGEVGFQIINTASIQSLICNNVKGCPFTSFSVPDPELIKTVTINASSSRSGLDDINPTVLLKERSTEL
Description: as §2, §3, §4, §5, §6, §7, §8, §9, §10, §11, §12, §13, §14, §15
Phenol (acts as a cofactor for COX-2).
as §16, §17
o Keep all dilutions on ice.
as §18, §19, §20, §21, §22, §23, §24, §25, §26

## O=C(NCc1ccccc1)c1nc2c(cnn2-c2ccccc2)c(=O)[nH]1 [II]
[1]
  IC50: 23.8 µM

## O=C(Cn1cnc2c(cnn2-c2ccccc2)c1=O)Nc1ccc2ccccc2c1 [Compound 5j, N-(Naphthalen-2-yl)-2-(4-Oxo-1-Phenyl-1,4-Dihydro-5H-Pyrazolo[3,4-d]Pyrimidin-5-yl) Acetamide]
[2]
  TNF-α levels in serum: significantly reduced
[3]
  IL-6 levels in serum: significantly reduced; also recorded: highest inhibition of IL-6 levels, approaching normal levels
[4]; 1 h
  Percentage of inhibition of carrageenan-induced paw edema: 28.35%
[4]; 2 h
  Percentage of inhibition of carrageenan-induced paw edema: 50.13%
[4]; 3 h, 50 mg/kg
  Percentage of inhibition of carrageenan-induced paw edema: 62.41%
[5]
  histological structure of the gastric mucosa: preserved gastric tissue integrity; also recorded: intact gastric tissue; also recorded: normal histological structure of the gastric mucosa
[6]
  IC50: 6.4 ± 0.22 µM
[6]; conc 0.01 (uM)
  COX1 %inh: 1.32%
[6]; conc 0.1 (uM)
  COX1 %inh: 7.85%
[6]; conc 1 (uM)
  COX1 %inh: 19.2%
[6]; conc 10 (uM)
  COX1 %inh: 57.9%
[6]; conc 100 (uM)
  COX1 %inh: 80.1%
[7]
  IC50: 0.398 ± 0.014 µM
  SI, in vitro COX-2 selectivity index (COX-1 IC50/COX-2 IC50): 16.09
[7]; conc 0.01 (uM)
  COX2 %inh: -425%
[7]; conc 0.1 (uM)
  COX2 %inh: -285%
[7]; conc 1 (uM)
  COX2 %inh: -103%
[7]; conc 10 (uM)
  COX2 %inh: 9.91%
[7]; conc 100 (uM)
  COX2 %inh: 54.8%

## O=C(Cn1cnc2c(cnn2-c2ccccc2)c1=O)N(c1ccccc1)c1ccccc1 [Compound 5k, 2-(4-Oxo-1-Phenyl-1,4-Dihydro-5H-Pyrazolo[3,4-d]Pyrimidin-5-yl)-N, N-Diphenyl Acetamide]
[2]
  TNF-α levels in serum: significantly reduced
[3]
  IL-6 levels in serum: significantly reduced
[4]; 1 h
  Percentage of inhibition of carrageenan-induced paw edema: 31.46%
[4]; 2 h
  Percentage of inhibition of carrageenan-induced paw edema: 44.88%
[4]; 3 h, 50 mg/kg
  Percentage of inhibition of carrageenan-induced paw edema: 54.89%
[5]
  histological structure of the gastric mucosa: preserved gastric tissue integrity; also recorded: intact gastric tissue; also recorded: normal histological structure of the gastric mucosa
[6]
  IC50: 25.5 ± 0.86 µM
[6]; conc 0.01 (uM)
  COX1 %inh: 0.72%
[6]; conc 0.1 (uM)
  COX1 %inh: 5.18%
[6]; conc 1 (uM)
  COX1 %inh: 15%
[6]; conc 10 (uM)
  COX1 %inh: 31.4%
[6]; conc 100 (uM)
  COX1 %inh: 74.9%
[7]
  IC50: 0.266 ± 0.009 µM
  SI, in vitro COX-2 selectivity index (COX-1 IC50/COX-2 IC50): 95.8 and 95.75
[7]; conc 0.01 (uM)
  COX2 %inh: -394%
[7]; conc 0.1 (uM)
  COX2 %inh: -266%
[7]; conc 1 (uM)
  COX2 %inh: -76%
[7]; conc 10 (uM)
  COX2 %inh: 14.6%
[7]; conc 100 (uM)
  COX2 %inh: 67.8%

## O=C(Nn1cnc2c(cnn2-c2ccccc2)c1=O)c1ccccc1 [Compound I]
[1]
  IC50: 78.9 µM
